Laboratory results published in PMC11435065, “Inhibition of P-Glycoprotein Asymmetrically Alters the In Vivo Exposure Profile of SGC003F: A Novel Guanylate Cyclase Stimulator” (Pharmaceuticals, 2024).
Where two headings read alike, the source gives them in different places.

Experiments:
[1] = Bidirectional transport across Caco-2 monolayer cells; assay type: in vitro ADME; details: human, Caco-2 cells, read-out: ER value (efflux ratio)
Protocol: LLC-PK1-MDR1, LLC-PK1-MOCK, and Caco-2 cells were seeded in 24-well Transwell cell plates at optimized densities. The medium was changed every other day for the LLC-PK1 cells and every day for the Caco-2 cells. The LLC-PK1 cells were cultured continuously for 4–7 days, while the Caco-2 cells were cultured continuously for 28–35 days in preparation for transport experiments. Prior to the experiment, TEER (transepithelial electrical resistance) values were measured using a cell resistance meter. For electrical measurements, two electrodes were used, with one electrode placed in the upper compartment and the other in the lower compartment and the electrodes were separated by the cellular monolayer. The measurement procedure included measuring the blank resistance (Rblank) of the semipermeable membrane only (without cells) and measuring the resistance across the cell layer on the semipermeable membrane (Rtotal). TEER values were achieved by calculating as TEER = (Rtotal − Rblank) × Marea in the unit of Ω·cm^2. […]
The apparent permeability rate value (Papp) of the monolayer cells was calculated according to Equation (5) Papp = (dQ/dt)/(A × C0)(5) where dQ/dt is the transport rate (µmol·s^−1); A is the insert surface area (0.33 cm^2); C0 is the initial concentration of the compound (µM).
Efflux rate (ER) was calculated according to Equation (6):ER = Papp B-A/PappA-B(6)

[2] = Plasma pharmacokinetics of SGC003F in rats with or without tariquidar; assay type: in vivo, rat; details: for clearance / AUC(0-t) / Vd / Tmax / half-life / Cmax / bioavailability: male, Sprague-Dawley, plasma; for Vd: read-out: Vss; for bioavailability: read-out: F (bioavailability)
Protocol: Adult Sprague Dawley rats (230–280 g) were obtained from Beijing Vital River Laboratory Animal Technology Co., Ltd. (Beijing, China). The animals were kept in a controlled environment with a 12 h light/dark cycle and stable temperature, and had free access to food and water, adapting for one week. All animal procedures were approved by the Experimental Animal Ethics Committee of Beijing Institute of Pharmacology and Toxicology (IACUC-DWZX-2023-P718).
SGC003F and tariquidar were dissolved in a solvent consisting of 11% isopropyl myristate, 74% polyethylene glycol 35 castor oil, and 15% diethylene glycol monoethyl ether. The stock solution concentrations were 1 mg/mL for SGC003F and 22.5 mg/mL for tariquidar. Next, the stock solution of SGC003F and tariquidar were diluted with saline at a ratio of 1:9 and 1:3.5, respectively, to achieve a working solution of SGC003F (0.1 mg/mL) and tariquidar (5 mg/mL) for oral and intravenous administration in rats.
Thirty-six male SD rats were randomly divided into 6 groups, with 6 rats in each group. Group I: SGC003F (p.o., 1 mg/kg) + blank vehicle (control group); Group II: SGC003F (p.o., 1 mg/kg) + tariquidar (i.v., 7.5 mg/kg); Group III: SGC003F (p.o., 1 mg/kg) + tariquidar (p.o., 15 mg/kg); Group IV: SGC003F (i.v., 1 mg/kg) + blank vehicle; Group V: SGC003F (i.v., 1 mg/kg) + tariquidar (i.v., 7.5 mg/kg); Group VI: SGC003F (i.v., 1 mg/kg) + tariquidar (p.o., 15 mg/kg). Oral administration required fasting for 12 h in advance and free access to water. At 0.033 (i.v.), 0.083, 0.25, 0.5, 1, 2, 4, 8, 12, and 24 h after administration, 100 μL of blood was collected intravenously and placed in heparin tubes. All blood samples were centrifuged at 2500× g for 10 min at 4 °C, and plasma was stored at −40 °C for analysis.
The main pharmacokinetic parameters, such as time to peak (tmax), half-life (t1/2), peak concentration (Cmax), and area under the curve (AUC), bioavailability (F), were calculated using a non-compartmental model with WinNonlin 8.1 software (Princeton, NJ, USA).
The elimination rate constant (ke or λz) was determined from the terminal phase of the concentration–time curve by using a semilogarithmic plot. Furthermore, the half-life (t1/2) was calculated according to this equation t1/2 = 0.693/ke(1)
Bioavailability (F) was calculated according to Equation (2):F = Dose(i.v.) × AUC(p.o.)/Dose(p.o.) × AUC(i.v.) × 100%(2)

[3] = rat, po, 1 mg/kg, SGC003F p.o. 1 mg/kg, single
[4] = rat, po, 1 mg/kg, SGC003F p.o. 1 mg/kg, with tariquidar i.v. 7.5 mg/kg
[5] = rat, po, 1 mg/kg, SGC003F p.o. 1 mg/kg, with tariquidar p.o. 15 mg/kg
[6] = rat, po, 1 mg/kg, rat plasma, SGC003F p.o. 1 mg/kg, single
[7] = rat, po, 1 mg/kg, rat plasma, SGC003F p.o. 1 mg/kg, with tariquidar i.v. 7.5 mg/kg
[8] = rat, po, 1 mg/kg, rat plasma, SGC003F p.o. 1 mg/kg, with tariquidar p.o. 15 mg/kg
[9] = rat plasma, SGC003F p.o. 1 mg/kg, tariquidar i.v. 7.5 mg/kg
[10] = rat plasma, SGC003F p.o. 1 mg/kg, tariquidar p.o. 15 mg/kg
[11] = rat, SGC003F i.v. 1 mg/kg, tariquidar i.v. 7.5 mg/kg
[12] = rat, SGC003F i.v. 1 mg/kg, tariquidar p.o. 15 mg/kg
[13] = rat, SGC003F p.o. 1 mg/kg, tariquidar i.v. 7.5 mg/kg
[14] = rat, SGC003F p.o. 1 mg/kg, tariquidar p.o. 15 mg/kg

COC(=O)Nc1c(N)nc(-c2nn(Cc3sccc3F)c3ncc(F)cc23)nc1N [SGC003F]
efflux ratio at 2 h, 2 µM [1]: 7.2 | clearance ([2]; rat, iv, 1 mg/kg, SGC003F i.v. 1 mg/kg, single): 2.18 mL/min/kg | clearance ([2]; rat, iv, 1 mg/kg, SGC003F i.v. 1 mg/kg, with tariquidar i.v. 7.5 mg/kg): 2.03 mL/min/kg | clearance ([2]; rat, iv, 1 mg/kg, SGC003F i.v. 1 mg/kg, with tariquidar p.o. 15 mg/kg): 1.49 mL/min/kg | AUC(0-t) ([2]; rat, iv, 1 mg/kg, rat plasma, SGC003F i.v. 1 mg/kg, single): 7620 ± 560 ng·h/mL | AUC(0-t) ([2]; rat, iv, 1 mg/kg, rat plasma, SGC003F i.v. 1 mg/kg, with tariquidar i.v. 7.5 mg/kg): 8170 ± 530 ng·h/mL | AUC(0-t) ([2]; rat, iv, 1 mg/kg, rat plasma, SGC003F i.v. 1 mg/kg, with tariquidar p.o. 15 mg/kg): 11300 ng·h/mL | Vd ([2]; rat, iv, 1 mg/kg, rat, SGC003F i.v. 1 mg/kg, single): 0.419 ± 0.0318 L/kg | Vd ([2]; rat, iv, 1 mg/kg, rat, SGC003F i.v. 1 mg/kg, with tariquidar i.v. 7.5 mg/kg): 0.422 ± 0.0328 L/kg | Vd ([2]; rat, iv, 1 mg/kg, rat, SGC003F i.v. 1 mg/kg, with tariquidar p.o. 15 mg/kg): 0.382 ± 0.0266 L/kg | Tmax [2, 3]: 1.33 ± 0.52 h | half-life [2, 3]: 207 ± 27.6 min | Tmax [2, 4]: 1.5 ± 0.55 h | half-life [2, 4]: 259 ± 54.6 min | Tmax [2, 5]: 2.33 ± 1.37 h | half-life [2, 5]: 261 ± 21 min | AUC(0-t) [2, 6]: 3540 ± 610 ng·h/mL | Cmax [2, 6]: 673 ± 187 ng/mL | AUC(0-t) [2, 7]: 5690 ± 1080 ng·h/mL | Cmax [2, 7]: 722 ± 111 ng/mL | AUC(0-t) [2, 8]: 10800 ng·h/mL | Cmax [2, 8]: 1430 ± 250 ng/mL | bioavailability ([2]; rat, po, 1 mg/kg, rat, SGC003F p.o. 1 mg/kg, single): 46.4% | bioavailability ([2]; rat, po, 1 mg/kg, rat, SGC003F p.o. 1 mg/kg, with tariquidar i.v. 7.5 mg/kg): 69.7% | bioavailability ([2]; rat, po, 1 mg/kg, rat, SGC003F p.o. 1 mg/kg, with tariquidar p.o. 15 mg/kg): 95.1% | bioavailability ([2]; rat, po, rat, SGC003F p.o. 1 mg/kg, with tariquidar p.o. 15 mg/kg): 95% | AUC0-t, Ratio 1 (with Tar (i.v.)/single) ([2]; rat plasma, SGC003F i.v. 1 mg/kg, tariquidar i.v. 7.5 mg/kg): 1.07 | AUC0-t, Ratio 2 (with Tar (p.o.)/single) ([2]; rat plasma, SGC003F i.v. 1 mg/kg, tariquidar p.o. 15 mg/kg): 1.49 | AUC0-t, Ratio 1 (with Tar (i.v.)/single) [2, 9]: 1.61 | Cmax, Ratio 1 (with Tar (i.v.)/single) [2, 9]: 1.07 | AUC0-t, Ratio 2 (with Tar (p.o.)/single) [2, 10]: 3.05 | Cmax, Ratio 2 (with Tar (p.o.)/single) [2, 10]: 2.13 | CL, Ratio 1 (with Tar (i.v.)/single) [2, 11]: 0.93 | Vss, Ratio 1 (with Tar (i.v.)/single) [2, 11]: 1.00 | CL, Ratio 2 (with Tar (p.o.)/single) [2, 12]: 0.68 | Reduction of CL versus control group [2, 12]: 32% | Vss, Ratio 2 (with Tar (p.o.)/single) [2, 12]: 0.91 | F, Ratio 1 (with Tar (i.v.)/single) [2, 13]: 1.50 | Tmax, Ratio 1 (with Tar (i.v.)/single) [2, 13]: 1.13 | t1/2, Ratio 1 (with Tar (i.v.)/single) [2, 13]: 1.25 | F, Ratio 2 (with Tar (p.o.)/single) [2, 14]: 2.05 | Tmax, Ratio 2 (with Tar (p.o.)/single) [2, 14]: 1.75 | t1/2, Ratio 2 (with Tar (p.o.)/single) [2, 14]: 1.26
